The nature of data set [1]: Polymorphism: solid forms found in salt screen by HT-XRPD. It counts as physicochemical. As to conditions: Example 1 salt screen in MeOH, DME, THF. How it is done: The precipitated solids were analyzed by high throughput X-ray powder diffractometry (HT XRPD). Liquid phases (both solutions and mother liquors) were evaporated at ambient conditions and the residual solids were analyzed by HT XRPD.
The salt screen experiments were carried out in methanol (MeOH), 1,2-dimethoxyethane (DME) and tetrahydrofuran (THF).

Data set [2] in a line: Aqueous solubility of salts, Example 1 (aliquot addition; HPLC after 24 h at RT; pH of solutions/mother liquors). How it is done:
The aqueous solubility of the salts was estimated qualitatively by the solvent aliquot addition method. Aliquots of water up to 500-600 μL were added to approximately 5 mg of salt. The solubility of the free base was also estimated.
The suspensions were let equilibrating at room temperature for 24 h. Afterwards, solids were separated from the liquid phases. The liquid phases were filtered and analyzed by HPLC to determine the solubility. The pH of solutions/mother liquors was also measured.
Suspensions of the two salts were prepared in water with a concentration of 9-10 mg/mL. The mixtures were let equilibrating at RT for 24 h. Afterwards, solids were separated from the liquid phases. The liquid phases were filtered and analyzed by HPLC to determine the solubility. The pH of mother liquors was also measured.

Data set [3] can be described thus: Hygroscopicity by Dynamic Vapor Sorption (DVS). It counts as physicochemical. The procedure: The hygroscopic behaviour of the salts was evaluated through Dynamic Vapor Sorption (DVS) measurements with an RH profile 40-95-0-40% at 25° C. and a dm/dt of 0.002. The classification of the hygroscopic behaviour is based on the water vapour uptake at 25° C./80% RH in first adsorption cycle of sorption isotherm.

Data set [4] can be described thus: Physical stability under Accelerated Aging Conditions (AAC, 40° C./75% RH, 2 days), HT-XRPD. As to conditions: Example 1; 40° C./75% RH for 2 days.
Method: The solids were separated from the liquid phases by centrifugation, dried overnight under vacuum at 50° C. and analyzed by HT-XRPD. Solvents from the remaining mother liquors and solutions were evaporated under ambient conditions (evaporative crystallization experiments) and the residual solids were analyzed by HT-XRPD.
Slurries of the amorphous solids (GEN9 and GEN16, respectively) were prepared in 15 solvents at room temperature. The suspensions were subjected to a temperature profile, which comprised of three heating and cooling cycles. At the end of the temperature profile, the solids were isolated by centrifugation and dried at ambient conditions and under vacuum at 50° C. Upon completion of all crystallization experiments, all solids were analyzed by HT-XRPD.
The nature of data set [5]: Thermal stability of benzamil in solution (UPLC MS). It counts as physicochemical. As to conditions: ethanol, ~0.5 mg/mL, 1 h. The procedure:
The thermal stability of benzamil was evaluated in three solvent systems: acetonitrile:water 1:1, ethanol, and 0.1 M HCl. Solutions of benzamil (˜0.5 mg/mL) were prepared in the selected solvents and split over 3 vials. The solutions were stirred at room temperature, 50° C. and 80° C. for one hour and then analyzed by UPLC MS. The chemical purity of benzamil measured in the solutions incubated at 50° C. and 80° C. for 1 h was compared to that measured initially in the starting solutions.

A short description of data set [6]: Qualitative solubility of benzamil free base in solvents (aliquot addition). It counts as physicochemical.

One may read the solubility as the dissolved amount per volume that the medium holds. A lower solubility goes with little dissolved substance.

With `CC(=O)O.NC(=NC(=O)c1nc(Cl)c(N)nc1N)NCc1ccccc1` [ACA1], the Polymorphism entry in data set [1] is listed as “Yes”. Further, the Water solubility in data set [2] (Example 1, RT, aliquot addition (ranges) or HPLC after 24 h, not in Table 3) is 15000 to 19000 µg/mL. The water vapour uptake in data set [3] (25° C./80% RH, first adsorption cycle) is 0.1%. Further, the “classification of hygroscopic behaviour” value in data set [3] (based on water vapour uptake at 25° C./80% RH) is reported as “non hygroscopic”. Besides, in data set [4], the “Physically stable after AAC” value is “physically stable and Yes”.

For `NC(=NCc1ccccc1)NC(=O)c1nc(Cl)c(N)nc1N` [Benzamil free base, 3,5-diamino-N—(N′-benzylcarbamimidoyl)-6-chloropyrazine-2-carboxamide], the “chemical stability in solution” value in data set [5] (50° C.) is reported as “stable”; in data set [5] (80° C.), “some chemical degradation was observed”. Moreover, the qualitative solubility entry in data set [6] (1,2-dimethoxyethane) is “slightly soluble”; in data set [6] (methanol), “slightly soluble”; in data set [6] (most of the tested solvents (ethanol, water, 1,4-dioxane, acetonitrile, TBME, heptane, ethylacetate, THF), approximately 3 mg/mL), “insoluble”. Further, the “effect of temperature on solubility” value in data set [6] (THF suspension, 50° C. for 30 min) was “slightly improved the solubility”. Further, in data set [1], the Polymorphism entry is on record as “Yes”. Also, the Water solubility result in data set [2] is given as “practically insoluble”. This molecule also gave a solubility at 24 h in data set [2] (water, thermodynamic from solid) of under 100 µg/mL.
